From ChEMBL document CHEMBL1156984, “Synthesis and biological evaluation of piperazinyl heterocyclic antagonists of the gonadotropin releasing hormone (GnRH) receptor” (Bioorg Med Chem Lett, 2010)
≈ marks a conversion by molar mass, not a printed value.

What was measured:
[1] = target: T1, Gonadotropin-releasing hormone receptor (Homo sapiens, UniProt P30968); assay: Displacement of [125I]D-Trp6-GnRH from human recombinant GNRH receptor by scintillation counting
T1 sequence (P30968 whole entry): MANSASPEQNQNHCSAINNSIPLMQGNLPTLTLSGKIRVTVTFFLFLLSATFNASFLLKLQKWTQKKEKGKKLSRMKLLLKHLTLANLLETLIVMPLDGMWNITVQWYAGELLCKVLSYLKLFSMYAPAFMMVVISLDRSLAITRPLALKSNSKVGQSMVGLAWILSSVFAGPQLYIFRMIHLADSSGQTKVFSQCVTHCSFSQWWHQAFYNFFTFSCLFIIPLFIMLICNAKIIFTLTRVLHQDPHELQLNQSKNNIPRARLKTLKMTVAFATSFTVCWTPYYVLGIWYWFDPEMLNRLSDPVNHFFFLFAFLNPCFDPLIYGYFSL

[2] = Solubility at pH 7.4; type: physicochemical; details: buffer
[3] = target: T2, Gonadotropin-releasing hormone receptor (Rattus norvegicus, UniProt P30969); assay: Antagonist activity at GNRH receptor in rat pituitary cells assessed as inhibition of D-Trp6-GnRH-induced LH accumulation after 3 hrs by RIA; type: functional, cell-based, Pituitary gland cell
T2 sequence (P30969 whole entry): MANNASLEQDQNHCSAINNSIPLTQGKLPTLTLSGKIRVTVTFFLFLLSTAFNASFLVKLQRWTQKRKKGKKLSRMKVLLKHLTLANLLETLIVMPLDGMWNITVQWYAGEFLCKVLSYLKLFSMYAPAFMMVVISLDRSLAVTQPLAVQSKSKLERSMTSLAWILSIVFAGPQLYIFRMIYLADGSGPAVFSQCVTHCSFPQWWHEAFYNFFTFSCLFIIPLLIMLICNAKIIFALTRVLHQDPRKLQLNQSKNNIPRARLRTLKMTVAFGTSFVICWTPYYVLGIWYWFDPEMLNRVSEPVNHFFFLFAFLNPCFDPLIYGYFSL

[4] = Permeability by PAMPA method; type: ADME; details: read-out: permeability
[5] = target: T1, Gonadotropin-releasing hormone receptor; assay: Antagonist activity at human recombinant GNRH receptor assessed as inhibition of D-Trp6-GNRH-induced IP accumulation after 1 hr by rapid filtration assay; type: functional
[6] = Cmax in orchidectomized Sprague-Dawley rat at 1 mg/kg, iv; type: ADME, organism-based; parameters: dose 1 mg/kg, route intravenous; details: male, in vivo
[7] = Cmax in orchidectomized Sprague-Dawley rat at 30 mg/kg, po; type: ADME, organism-based; parameters: dose 30 mg/kg, route oral; details: male, in vivo
[8] = Half life in orchidectomized Sprague-Dawley rat at 1 mg/kg, iv; type: ADME, organism-based; parameters: dose 1 mg/kg, route intravenous; details: male, in vivo
[9] = Half life in orchidectomized Sprague-Dawley rat at 30 mg/kg, po; type: ADME, organism-based; parameters: dose 30 mg/kg, route oral; details: male, in vivo
[10] = AUC (0 to infinity) in orchidectomized Sprague-Dawley rat at 1 mg/kg, iv; type: ADME, organism-based; parameters: time infinity, dose 1 mg/kg, route intravenous; details: male, plasma
[11] = AUC (0 to infinity) in orchidectomized Sprague-Dawley rat at 30 mg/kg, po; type: ADME, organism-based; parameters: time infinity, dose 30 mg/kg, route oral; details: male, plasma
[12] = Half life in rat liver microsomes; type: ADME, Microsome
Cytochrome P450 2C9 = Cytochrome P450 2C9 (Homo sapiens, UniProt P11712); assay: Inhibition of CYP2C9; type: ADME
[13] = target: T2, Gonadotropin-releasing hormone receptor; assay: Displacement of [125I]D-Trp6-GnRH from rat recombinant GNRH receptor by scintillation counting
Cytochrome P450 2D6 = Cytochrome P450 2D6 (Homo sapiens, UniProt P10635); assay: Inhibition of CYP2D6; type: ADME
Cytochrome P450 3A4 = Cytochrome P450 3A4 (Homo sapiens, UniProt P08684); assay: Inhibition of CYP3A4; type: ADME
[14] = Volume of distribution at steady state in orchidectomized Sprague-Dawley rat at 3 mg/kg, iv; type: ADME, organism-based; parameters: dose 3 mg/kg, route intravenous; details: male, in vivo, read-out: Vdss
[15] = Oral bioavailability in orchidectomized Sprague-Dawley rat at 30 mg/kg; type: ADME, organism-based; details: male, in vivo
[16] = Cmax in orchidectomized Sprague-Dawley rat at 3 mg/kg, iv; type: ADME, organism-based; parameters: dose 3 mg/kg, route intravenous; details: male, in vivo
[17] = Tmax in orchidectomized Sprague-Dawley rat at 30 mg/kg, po; type: ADME, organism-based; parameters: dose 30 mg/kg, route oral; details: male, in vivo
[18] = Half life in orchidectomized Sprague-Dawley rat at 3 mg/kg, iv; type: ADME, organism-based; parameters: dose 3 mg/kg, route intravenous; details: male, in vivo
[19] = AUC (0 to infinity) in orchidectomized Sprague-Dawley rat at 3 mg/kg, iv; type: ADME, organism-based; parameters: time infinity, dose 3 mg/kg, route intravenous; details: male, plasma
[20] = Clearance in orchidectomized Sprague-Dawley rat at 3 mg/kg, iv; type: ADME, organism-based; parameters: dose 3 mg/kg, route intravenous; details: male, in vivo
[21] = target: T3, Gonadotropin-releasing hormone receptor (Homo sapiens) (UniProt P30968); assay: Displacement of [125I]D-Trp6-GnRH from human recombinant GNRH receptor at 500 nM by scintillation counting
T3 sequence (whole entry): T1 sequence (P30968 whole entry)

Cytochrome P450 2D6, sequence (P10635 whole entry): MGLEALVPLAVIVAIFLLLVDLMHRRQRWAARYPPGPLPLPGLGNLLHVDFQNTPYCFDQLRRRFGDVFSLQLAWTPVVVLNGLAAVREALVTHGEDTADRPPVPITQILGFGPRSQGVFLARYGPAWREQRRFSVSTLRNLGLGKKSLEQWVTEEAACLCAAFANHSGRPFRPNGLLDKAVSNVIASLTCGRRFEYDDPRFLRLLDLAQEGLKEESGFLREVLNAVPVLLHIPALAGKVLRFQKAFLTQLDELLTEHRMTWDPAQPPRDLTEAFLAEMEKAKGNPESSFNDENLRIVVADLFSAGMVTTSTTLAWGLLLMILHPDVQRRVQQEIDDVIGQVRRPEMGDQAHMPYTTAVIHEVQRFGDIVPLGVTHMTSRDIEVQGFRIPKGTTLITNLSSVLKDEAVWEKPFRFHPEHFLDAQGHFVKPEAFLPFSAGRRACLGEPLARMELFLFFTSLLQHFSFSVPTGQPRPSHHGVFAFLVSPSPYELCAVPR
Cytochrome P450 3A4, sequence (P08684 whole entry): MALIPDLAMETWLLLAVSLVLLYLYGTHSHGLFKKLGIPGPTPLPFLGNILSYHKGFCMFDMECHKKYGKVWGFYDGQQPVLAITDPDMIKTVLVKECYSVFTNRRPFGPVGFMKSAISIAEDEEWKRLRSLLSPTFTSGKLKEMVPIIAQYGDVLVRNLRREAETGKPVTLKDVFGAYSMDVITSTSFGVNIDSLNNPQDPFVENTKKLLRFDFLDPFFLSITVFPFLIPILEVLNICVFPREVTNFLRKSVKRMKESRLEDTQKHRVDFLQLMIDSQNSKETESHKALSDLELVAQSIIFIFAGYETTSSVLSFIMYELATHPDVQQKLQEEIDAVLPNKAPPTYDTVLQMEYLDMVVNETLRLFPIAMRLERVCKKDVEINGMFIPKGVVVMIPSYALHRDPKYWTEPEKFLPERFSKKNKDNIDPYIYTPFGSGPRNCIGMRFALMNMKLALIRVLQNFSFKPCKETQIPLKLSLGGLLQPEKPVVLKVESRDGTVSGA
Cytochrome P450 2C9, sequence (P11712 whole entry): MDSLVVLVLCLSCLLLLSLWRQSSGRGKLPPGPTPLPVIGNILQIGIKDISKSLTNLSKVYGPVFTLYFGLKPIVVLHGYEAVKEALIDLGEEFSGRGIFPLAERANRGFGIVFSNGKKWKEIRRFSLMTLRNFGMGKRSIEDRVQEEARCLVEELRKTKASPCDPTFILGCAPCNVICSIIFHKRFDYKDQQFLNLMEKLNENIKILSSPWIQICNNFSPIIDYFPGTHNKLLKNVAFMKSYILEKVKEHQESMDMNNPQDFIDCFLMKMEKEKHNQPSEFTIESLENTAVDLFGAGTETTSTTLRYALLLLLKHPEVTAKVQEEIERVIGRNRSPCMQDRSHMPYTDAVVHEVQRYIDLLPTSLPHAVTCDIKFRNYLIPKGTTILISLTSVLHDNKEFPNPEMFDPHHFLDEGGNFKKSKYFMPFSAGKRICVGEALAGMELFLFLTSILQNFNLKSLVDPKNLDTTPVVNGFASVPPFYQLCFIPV

SMILES	IC50 [1] [nM]	solubility [2] [µg/mL]	IC50 [3] [nM]	IC50 [5] [nM]	IC50 [13] [nM]	also measured
CCc1nc(CN2CCN(c3cccn4cc(-c5ccc(C(C)(C)C)cc5)nc34)CC2)c(C)[nH]1	9.8	3 (≈ 6.57 µM)	920	60	37	half-life [12]: 21 min; Papp [4]: 0.2 ×10⁻⁶ cm/s; inhibition (INH) (Cytochrome P450 2C9): 6%; inhibition (INH) (Cytochrome P450 2D6): 8%; inhibition (INH) (Cytochrome P450 3A4): 78%
CCn1cnc(CN2CCN(c3cccn4cc(-c5ccc(C(C)(C)C)cc5)nc34)CC2)c1C	6.7	9 (≈ 19.7 µM)	420	41	12	Vd [14]: 3.5 L/kg; bioavailability [15]: 28%; half-life [12]: 11 min; Papp [4]: 1.1 ×10⁻⁶ cm/s; inhibition (INH) (Cytochrome P450 2C9): 10%; inhibition (INH) (Cytochrome P450 2D6): 9%; inhibition (INH) (Cytochrome P450 3A4): 54%; Cmax [16]: 1760 ng/mL; Tmax [17]: 48 min; Cmax [7]: 788 ng/mL; half-life [18]: 84 min; half-life [9]: 66 min; AUC(0-inf) [19]: 685 ng·h/mL; AUC(0-inf) [11]: 1950 ng·h/mL; clearance [20]: 75.1 mL/min/kg
CC(C)(C)c1ccc(-c2cn3cccc(N4CCN(Cc5cnc6ccccc6n5)CC4)c3n2)cc1	44	–	1500	39	29	–
CCc1nc(CN2CCN(c3ccnc4[nH]c(-c5ccc(C(C)(C)C)cc5)nc34)CC2)c(C)[nH]1	–	–	–	–	–	inhibition [21]: 32%
CCc1nc(CN2CCN(c3cccc4oc(-c5ccc(C(C)(C)C)cc5)nc34)CC2)c(C)[nH]1	–	–	–	–	–	inhibition [21]: 61%
CC(C)(C)c1ccc(-c2cn3cccc(N4CCN(Cc5ccc6nccnc6c5)CC4)c3n2)cc1	47	–	3400	90	81	–
CC(C)(C)c1ccc(-c2nc3c(N4CCN(Cc5ccc6nccnc6c5)CC4)cccc3[nH]2)cc1	–	–	360	–	72	–
CCc1nc(C)c(CN2CCN(c3cccc4[nH]c(-c5ccc(C(C)(C)C)cc5)nc34)CC2)[nH]1	10	20 (≈ 43.8 µM)	160	18	34	–
CCc1nc(CN2CCN(c3cccc4sc(-c5ccc(C(C)(C)C)cc5)nc34)CC2)c(C)[nH]1	–	–	–	–	–	inhibition [21]: 70%
CCc1nc(CN2CCN(c3cccc4nc(-c5ccc(C(C)(C)C)cc5)sc34)CC2)c(C)[nH]1	> 10000	–	–	–	–	–
CC(C)(C)c1ccc(-c2cn3cccc(N4CCN(Cc5c[nH]c(=O)[nH]c5=O)CC4)c3n2)cc1	4.3	–	4400	20	95	–

Now from value to compound, other results behind:

IC50 [1] [nM]	solubility [2] [µg/mL]	IC50 [3] [nM]	IC50 [5] [nM]	IC50 [13] [nM]	SMILES	also measured
> 10000	–	–	–	–	CCc1nc(CN2CCN(c3cccc4nc(-c5ccc(C(C)(C)C)cc5)oc34)CC2)c(C)[nH]1	–
5.8	3 (≈ 6.57 µM)	200	15	–	CCn1cnc(CN2CCN(c3cccc4[nH]c(-c5ccc(C(C)(C)C)cc5)nc34)CC2)c1C	Papp [4]: 2.7 ×10⁻⁶ cm/s; Cmax [6]: 458 ng/mL; Cmax [7]: 533 ng/mL; half-life [8]: 24 min; half-life [9]: 132 min; AUC(0-inf) [10]: 124 ng·h/mL; AUC(0-inf) [11]: 3440 ng·h/mL
58	–	–	–	290	CCc1nc(CN2CCN(c3cncc4[nH]c(-c5ccc(C(C)(C)C)cc5)nc34)CC2)c(C)[nH]1	–
2.3	6 (≈ 12.3 µM)	260	5	5.7	CCn1cc(CN2CCN(c3cccn4cc(-c5ccc(C(C)(C)C)cc5)nc34)CC2)c(=O)[nH]c1=O	half-life [12]: 6 min; Papp [4]: 1.2 ×10⁻⁶ cm/s; inhibition (INH) (Cytochrome P450 2C9): 0%; inhibition (INH) (Cytochrome P450 2D6): 0%; inhibition (INH) (Cytochrome P450 3A4): 54%
> 10000	–	–	–	–	CCc1nc(CN2CCN(c3cccc4nc(-c5ccc(C(C)(C)C)cc5)cn34)CC2)c(C)[nH]1	–
